The assay deals with c-myc in 22RV-1 cells. The experiment in a line: Human c-myc ELISA assay. The class given is cell-based. The settings on record: Homo sapiens; for Emax: 22Rv1, 18 h, read-out: Degradation of BRD4: Maximum inhibition (%) c-Myc ELISA in 22RV1 cells; for DC50: 22Rv1, read-out: Degradation of BRD4: DC50 (uM) c-Myc ELISA in 22RV1 cells. In short, it runs like this:
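c-myc levels measured by ELISA in RIPA lysates of 22RV-1 cells, calibrated with a 333-0 pg/ml standard curve. Lysates came from cells exposed for 18 h to an 8-point, 1:3 dose series starting at 300 nM or 1 μM final in 0.1% DMSO. Suppression potency given as DC50.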
(In general: In an ELISA, binding on a coated surface is turned into a signal by an enzyme label.)

In the case of `Cc1ncsc1-c1ccc(CNC(=O)[C@@H]2C[C@@H](O)CN2C(=O)[C@@H](NC(=O)COCCCOCCCCOc2ccc3c(c2)c2c(C(N)=O)cc(-c4c(C)noc4C)cc2n3Cc2ccccc2)C(C)(C)C)cc1` [Example 117, 9-benzyl-2-(dimethyl-1,2-oxazol-4-yl)-6-{4-[3-({[(2S)-1-[(2S,4R)-4-hydroxy-2-({[4-(4-methyl-1,3-thiazol-5-yl)phenyl]methyl}carbamoyl)pyrrolidin-1-yl]-3,3-dimethyl-1-oxobutan-2-yl]carbamoyl}methoxy)propoxy]butoxy}-9H-carbazole-4-carboxamide], the Emax amounted to 100% and the DC50 was less than 0.01 µM.

Consider `Cc1ncsc1-c1ccc([C@H](C)NC(=O)[C@@H]2C[C@@H](O)CN2C(=O)[C@@H](NC(=O)CCOCCN2CCN(C(=O)C[C@@H]3N=C(c4ccc(Cl)cc4)c4c(sc(C)c4C)-n4c(C)nnc43)CC2)C(C)(C)C)cc1` [Example 318], for which the Emax turned out to be 79% and the DC50 is 0.1 to 1 µM.

As to `Cc1ncsc1-c1ccc([C@H](C)NC(=O)[C@@H]2C[C@@H](O)CN2C(=O)[C@@H](NC(=O)/C=C/c2cc(F)cc(O[C@H](C)CNC(=O)C[C@@H]3N=C(c4ccc(Cl)cc4)c4c(sc(C)c4C)-n4c(C)nnc43)c2)C(C)(C)C)cc1` [Example 202], the Emax is 94% and the 50% degradation concentration (DC50) is less than 0.01 µM.

As to `Cc1ncsc1-c1ccc([C@H](C)NC(=O)[C@@H]2C[C@@H](O)CN2C(=O)C(C(C)C)n2cc(-c3cccc(OCCNC(=O)C[C@@H]4N=C(c5ccc(Cl)cc5)c5c(sc(C)c5C)-n5c(C)nnc54)c3)cn2)cc1` (some centres unmarked) [Example 222], the Emax is 100% and the half-maximal degradation concentration (DC50) was less than 0.01 µM.

Regarding `Cc1noc(-c2ccc([C@H](C)NC(=O)[C@@H]3C[C@@H](O)CN3C(=O)[C@@H](NC(=O)COc3ccc(O[C@H]4C[C@@H](NC(=O)C[C@@H]5N=C(c6ccc(Cl)cc6)c6c(sc(C)c6C)-n6c(C)nnc65)C4)nc3)C(C)(C)C)cc2)n1` [Example 271], the Emax amounted to 96.4% and the DC50 is less than 0.01 µM.

Consider `Cc1ncsc1-c1ccc([C@H](C)NC(=O)[C@@H]2C[C@@H](OC(=O)CCCN)CN2C(=O)[C@@H](NC(=O)c2cc3cc(O[C@H]4C[C@@H](NC(=O)C[C@@H]5N=C(c6ccc(Cl)cc6)c6c(sc(C)c6C)-n6c(C)nnc65)C4)ccc3o2)C(C)(C)C)cc1` [Example 344], for which the Emax was 95.9% and the DC50 fell in the range of 0.01 to 0.1 µM.

As to `Cc1ncoc1-c1ccc([C@H](C)NC(=O)[C@@H]2C[C@@H](O)CN2C(=O)C(C(C)C)n2cc(-c3cccc(O[C@H]4C[C@@H](NC(=O)C[C@@H]5N=C(c6ccc(Cl)cc6)c6c(sc(C)c6C)-n6c(C)nnc65)C4)c3)cn2)cc1` (some centres unmarked) [Example 286], the Emax was 93% and the DC50 lay in the range of 0.01 to 0.1 µM.

Take `Cc1ncsc1-c1ccc(CNC(=O)[C@@H]2C[C@@H](O)CN2C(=O)[C@@H](c2cc(Oc3ccc(O[C@H]4C[C@@H](NC(=O)C[C@@H]5N=C(c6ccc(Cl)cc6)c6c(sc(C)c6C)-n6c(C)nnc65)C4)nc3)no2)C(C)C)cc1` [Example 325]: the Emax stood at 81.5% and the DC50 was 0.01 to 0.1 µM.

For the compound `Cc1ncsc1-c1ccc(CNC(=O)[C@@H]2C[C@@H](O)CN2C(=O)[C@@H](NC(=O)COCCCCOCCCOc2ccc(NC(=O)C[C@@H]3N=C(c4ccc(Cl)cc4)c4c(sc(C)c4C)-n4c(C)nnc43)cc2)C(C)(C)C)cc1` [Example 15], the Emax is 100% and the DC50 was in the range of 0.01 to 0.1 µM.

Consider `Cc1ncsc1-c1ccc([C@H](C)NC(=O)[C@@H]2C[C@@H](O)CN2C(=O)[C@@H](NC(=O)CCc2cc(OC(C)CNC(=O)C[C@@H]3N=C(c4ccc(Cl)cc4)c4c(sc(C)c4C)-n4c(C)nnc43)ccc2F)C(C)(C)C)cc1` (some centres unmarked) [Example 151], for which the Emax came to 96% and the DC50 was less than 0.01 µM.

Take `Cc1ncsc1-c1ccc(CNC(=O)[C@@H]2C[C@@H](O)CN2C(=O)[C@H](c2cc(Oc3ccc(O[C@H]4C[C@@H](NC(=O)C[C@@H]5N=C(c6ccc(Cl)cc6)c6c(sc(C)c6C)-n6c(C)nnc65)C4)nc3)no2)C(C)C)cc1` [Example 324]: the Emax was 31.6% and the DC50 was more than 1 µM.

Regarding `Cc1ncsc1-c1ccc(CNC(=O)[C@@H]2C[C@@H](O)CN2C(=O)[C@@H](c2cc(OCCCCCNC(=O)C[C@@H]3N=C(c4ccc(Cl)cc4)c4c(sc(C)c4C)-n4c(C)nnc43)no2)C(C)C)cc1` [Example 121], the Emax was 98.5% and the DC50 is less than 0.01 µM.

On to `Cc1ncsc1-c1ccc([C@H](C)NC(=O)[C@@H]2C[C@@H](O)CN2C(=O)[C@@H](NC(=O)CN2CCN(C3CC4(C3)CN(C(=O)C[C@@H]3N=C(c5ccc(Cl)cc5)c5c(sc(C)c5C)-n5c(C)nnc53)C4)C[C@@H]2C)C(C)(C)C)cc1` [Example 358], for which the Emax is more than 90% and the DC50 was in the range of 0.01 to 0.1 µM.

As for `Cc1ncsc1-c1ccc([C@H](C)NC(=O)[C@@H]2C[C@@H](O)CN2C(=O)[C@@H](NC(=O)[C@@H]2CC[C@H](COCCCNC(=O)C[C@@H]3N=C(c4ccc(Cl)cc4)c4c(sc(C)c4C)-n4c(C)nnc43)O2)C(C)(C)C)cc1` [Example 186], the Emax turned out to be 94.5% and the DC50 is 0.01 to 0.1 µM.

For `Cc1sc2c(c1C)C(c1ccc(Cl)cc1)=N[C@@H](CC(=O)N[C@H]1C[C@H](Oc3ccc(CC(=O)N[C@H](C(=O)N4C[C@H](O)C[C@H]4C(=O)N[C@@H](C)c4ccc(C(=O)N5CCC5)cc4)C(C)(C)C)cc3)C1)c1nnc(C)n1-2` [Example 282], the Emax was 25.4% and the DC50 was more than 1 µM.

Turning to `Cc1ncsc1-c1ccc(CNC(=O)[C@@H]2C[C@@H](O)CN2C(=O)[C@@H](NC(=O)c2cn3ccc(OCCCNC(=O)C[C@@H]4N=C(c5ccc(Cl)cc5)c5c(sc(C)c5C)-n5c(C)nnc54)cc3n2)C(C)(C)C)cc1` [Example 99], the Emax was 67% and the DC50 was 0.1 to 1 µM.

With `Cc1ncsc1-c1ccc(CNC(=O)[C@@H]2C[C@@H](O)CN2C(=O)[C@@H](NC(=O)COCCOCCOCCCCOc2ccc3c(c2)c2c(C(N)=O)cc(-c4c(C)noc4C)cc2n3Cc2ccccc2)C(C)(C)C)cc1` [Example 152], the Emax amounted to 95% and the DC50 was in the range of 0.01 to 0.1 µM.

Regarding `Cc1ncsc1-c1ccc(CNC(=O)[C@@H]2C[C@@H](O)CN2C(=O)[C@@H](NC(=O)COCCOCCOCCOc2ccc3c(c2)c2c(C(N)=O)cc(-c4c(C)noc4C)cc2n3Cc2ccccc2)C(C)(C)C)cc1` [Example 83], the Emax turned out to be 98% and the DC50 was 0.01 to 0.1 µM.

As to `Cc1ncsc1-c1ccc(CNC(=O)[C@@H]2C[C@@H](O)CN2C(=O)[C@H](C(C)C)N2Cc3ccccc3C2=O)c(OCCOCCOCCOCCNC(=O)C[C@@H]2N=C(c3ccc(Cl)cc3)c3c(sc(C)c3C)-n3c(C)nnc32)c1` [Example 1, (2S,4R)-N-{[2-(2-{2-[2-(2-{2-[(9S)-7-(4-chlorophenyl)-4,5,13-trimethyl-3-thia-1,8,11,12-tetraazatricyclo[8.3.0.0^2,^6]trideca-2(6),4,7,10,12-pentaen-9-yl]acetamido}ethoxy)ethoxy]ethoxy}ethoxy)-4-(4-methyl-1,3-thiazol-5-yl)phenyl]methyl}-4-hydroxy-1-[(2S)-3-methyl-2-(1-oxo-2,3-dihydro-1H-isoindol-2-yl)butanoyl]pyrrolidine-2-carboxamide], the Emax amounted to 100% and the DC50 was 0.1 to 1 µM.

On to `Cc1ncsc1-c1ccc(CNC(=O)[C@@H]2C[C@@H](O)CN2C(=O)[C@@H](C(C)C)n2cc(-c3ccnc(O[C@H](C)CNC(=O)C[C@@H]4N=C(c5ccc(Cl)cc5)c5c(sc(C)c5C)-n5c(C)nnc54)c3)cn2)cc1` [Example 167], for which the Emax amounted to 27.6% and the 50% degradation concentration (DC50) is more than 1 µM.

Regarding `Cc1ncsc1-c1ccc([C@H](C)NC(=O)[C@@H]2C[C@H](O)CN2C(=O)[C@@H](NC(=O)COCCCOCCNC(=O)C[C@@H]2N=C(c3ccc(Cl)cc3)c3c(sc(C)c3C)-n3c(C)nnc32)C(C)(C)C)cc1` [Example 71], the Emax was 11.2% and the half-maximal degradation concentration (DC50) is more than 1 µM.

For `CCc1ccc(C2=N[C@@H](CC(=O)Nc3ccc(OCCCOCCCOCC(=O)N[C@H](C(=O)N4C[C@H](O)C[C@H]4C(=O)NCc4ccc(-c5scnc5C)cc4)C(C)(C)C)cc3)c3nnc(C)n3-c3sc(C)c(C)c32)cc1` [Example 64, (2S,4R)-1-[(2S)-2-(2-{3-[3-(4-{2-[(9S)-7-(4-ethylphenyl)-4,5,13-trimethyl-3-thia-1,8,11,12-tetraazatricyclo[8.3.0.0^2,^6]trideca-2(6),4,7,10,12-pentaen-9-yl]acetamido}phenoxy)propoxy]propoxy}acetamido)-3,3-dimethylbutanoyl]-4-hydroxy-N-{[4-(4-methyl-1,3-thiazol-5-yl)phenyl]methyl}pyrrolidine-2-carboxamide], the Emax came out at 96.5% and the DC50 is 0.01 to 0.1 µM.

Consider `CCc1nnc2n1-c1sc(C)c(C)c1C(c1ccc(Cl)cc1)=N[C@H]2CC(=O)Nc1ccc(OCCCOCCCOCC(=O)N[C@H](C(=O)N2C[C@H](O)C[C@H]2C(=O)NCc2ccc(-c3scnc3C)cc2)C(C)(C)C)cc1` [Example 47], for which the Emax was found to be 89% and the DC50 lay in the range of 0.1 to 1 µM.

Regarding `Cc1ncsc1-c1ccc(CNC(=O)[C@@H]2C[C@@H](O)CN2C(=O)[C@@H](NC(=O)COCCCOc2ccc3c(c2)c2c(C(N)=O)cc(-c4c(C)noc4C)cc2n3Cc2ccccc2)C(C)(C)C)cc1` [Example 184], the Emax is 91.5% and the DC50 fell in the range of 0.01 to 0.1 µM.

In the case of `Cc1ncsc1-c1ccc([C@H](C)NC(=O)[C@@H]2C[C@@H](O)CN2C(=O)[C@@H](NC(=O)c2cc3ccc(O[C@H](C)CNC(=O)C[C@@H]4N=C(c5ccc(Cl)cc5)c5c(sc(C)c5C)-n5c(C)nnc54)cc3o2)C(C)(C)C)cc1` [Example 211, (2S,4R)-1-[(2S)-2-[(6-{[(2R)-1-{2-[(9S)-7-(4-chlorophenyl)-4,5,13-trimethyl-3-thia-1,8,11,12-tetraazatricyclo[8.3.0.0^2,^6]trideca-2(6),4,7,10,12-pentaen-9-yl]acetamido}propan-2-yl]oxy}-1-benzofuran-2-yl)formamido]-3,3-dimethylbutanoyl]-4-hydroxy-N-[(1S)-1-[4-(4-methyl-1,3-thiazol-5-yl)phenyl]ethyl]pyrrolidine-2-carboxamide], the Emax worked out at 99% and the DC50 was less than 0.01 µM.

As usually defined, the DC50 is the concentration at which degradation of the target reaches its halfway point.

The values above are taken from US11554171B2, “Compounds and methods for the targeted degradation of bromodomain-containing proteins” (Arvinas Operations, Inc., priority 2015, dated 2023).
